Data published in patent US9090600B2, “Fungicidal 4-substituted-3-{phenyl[(heterocyclylmethoxy)imino]methyl}-1,2,4-oxadizol-5(4H)-one derivatives” (BAYER INTELLECTUAL PROPERTY GMBH, priority 2011, dated 2015).
Marks after values point to notes of the source that are not given here.

Test system: Phytophthora infestans
Assay type: in vivo
Conditions: tomato plants, spray, 500 ppm, grading 5 days after contamination

Row | Structure (SMILES) | Eff. % [%]
1 | Cn1c(C(=NOCc2cccc(NC(=O)CCCC(C)(C)C)n2)c2ccccc2)noc1=O [Example 247] | 99
2 | CCOCCC(=O)Nc1cccc(CO/N=C(/c2ccccc2)c2noc(=O)n2C)n1 [Example 48] | 98
3 | CC(Oc1ccccc1Cl)C(=O)Nc1nc(CO/N=C(/c2ccccc2)c2noc(=O)n2C)cs1 (racemic) [Example 366] | 94
4 | C#CCC(C)OC(=O)Nc1cccc(CO/N=C(/c2ccccc2)c2noc(=O)n2CC)n1 (stereo not shown) [Example 127] | 100
5 | Cn1c(/C(=N\OCc2cccc(NC(=O)C3CCC3)n2)c2ccccc2)noc1=O [Example 118] | 100

Test system: not given
Conditions: pH 2.7

Row | Structure (SMILES) | LogP
6 | Cn1c(C(=NOCc2cccc(NC(=O)CCCC(C)(C)C)n2)c2ccccc2)noc1=O [Example 247] | 4.53 [a]
7 | CCOCCC(=O)Nc1cccc(CO/N=C(/c2ccccc2)c2noc(=O)n2C)n1 [Example 48] | 2.96 [a]
8 | CC(Oc1ccccc1Cl)C(=O)Nc1nc(CO/N=C(/c2ccccc2)c2noc(=O)n2C)cs1 (racemic) [Example 366] | 4.07 [a]
9 | C#CCC(C)OC(=O)Nc1cccc(CO/N=C(/c2ccccc2)c2noc(=O)n2CC)n1 (stereo not shown) [Example 127] | 3.81 [a]
10 | Cn1c(/C(=N\OCc2cccc(NC(=O)C3CCC3)n2)c2ccccc2)noc1=O [Example 118] | 3.27 [a]
11 | Cn1c(/C(=N\OCc2cccc(NC(=O)OCC3COCO3)n2)c2ccccc2)noc1=O (stereo not shown) [compound 529] | 2.73 [a]
12 | CCCC#CCCOC(=O)Nc1cccc(CON=C(c2ccccc2)c2noc(=O)n2C)n1 [compound 511] | 4.31 [a]
13 | Cn1c(/C(=N\OCc2cccc(NC(=O)OCC3CC3)n2)c2ccccc2)noc1=O [compound 473] | 3.64 [a]
14 | Cn1c(C(=NOCc2cccc(N)n2)c2cccc(F)c2F)noc1=O [Example 508] | 1.34 [a]
15 | COc1cccc(C(=NOCc2cccc(N)n2)C(N)=NO)c1 (mixture of isomers) [Example V-6] | 0.58 [a]
16 | Cn1c(/C(=N\OCc2cccc(NC(=O)OCCc3ccc(Cl)cc3)n2)c2ccccc2)noc1=O [Example 349] | 4.53 [a]
17 | Cc1ccccc1OCC(=O)Nc1cccc(CO/N=C(/c2ccccc2)c2noc(=O)n2C)n1 [Example 76] | 4.17 [a]
18 | COc1ccccc1OC(C)C(=O)Nc1cccc(CO/N=C(/c2ccccc2)c2noc(=O)n2C)n1 (stereo not shown) [Example 115] | 4.15 [a]
19 | CCCCC(C)(C)C(=O)Nc1nc(CO/N=C(/c2ccccc2)c2noc(=O)n2C)cs1 [Example 160] | 4.48 [a]
20 | Cn1c(/C(=N\OCc2cccc(NC(=O)c3ccc(I)cc3)n2)c2ccccc2)noc1=O [Example 174] | 4.29 [a]
21 | Cn1c(/C(=N\OCc2cccc(NC(=O)OCCCl)n2)c2ccccc2)noc1=O [compound 518] | 3.29 [a]
22 | CC(C)(C)OC(=O)Nc1cccc(CO/N=C(/c2ccccc2)c2noc(=O)[nH]2)n1 [Example 135] | 3.76 [a]
23 | Cn1c(/C(=N\OCc2cccc(NC(=O)OCC3CC=CCC3)n2)c2ccccc2)noc1=O (stereo not shown) [compound 526] | 4.51 [a]
24 | Cn1c(/C(=N\OCc2cccc(NC(=O)COc3cccc(F)c3)n2)c2ccccc2)noc1=O [Example 311] | 3.78 [a]
25 | CCCCCOC(=O)Nc1nc(CO/N=C(/c2ccccc2Cl)c2noc(=O)n2C)cs1 [Example 530] | 4.25 [a]
26 | C#CCCCCOC(=O)Nc1cccc(CON=C(c2ccccc2)c2noc(=O)n2C)n1 [compound 484] | 3.78 [a]
27 | COc1cccc(COC(=O)Nc2cccc(CO/N=C(/c3ccccc3)c3noc(=O)n3C)n2)c1 [compound 441] | 3.96 [a]
28 | CSCCCOC(=O)Nc1cccc(CO/N=C(/c2ccccc2)c2noc(=O)n2C)n1 [compound 516] | 3.68 [a]
29 | CCc1ccccc1OC(=O)Nc1cccc(CO/N=C(/c2ccccc2)c2noc(=O)n2C)n1 [compound 430] | 4.25 [a]
30 | COc1ccc(/C(=N/OCc2cccc(NC(=O)OC(C)(C)C)n2)c2noc(=O)[nH]2)cc1 [Example 333] | 3.69 [a]
31 | Cn1c(/C(=N\OCc2csc(NC(=O)COc3ccccc3F)n2)c2ccccc2)noc1=O [Example 28] | 3.51 [a]
32 | Cn1c(/C(=N\OCc2cccc(NC(=O)OCc3ccc(C#N)cc3)n2)c2ccccc2)noc1=O [compound 432] | 3.61 [a]

Row | Structure (SMILES) | LogP
33 | Cn1c(/C(=N\OCc2cccc(NC(=O)OCC[Si](C)(C)C)n2)c2ccccc2)noc1=O [compound 542] | 4.88 [a]
34 | C=CCC(C)OC(=O)Nc1cccc(CO/N=C(/c2ccccc2)c2noc(=O)n2C)n1 (racemic) [compound 479] | 4.01 [a]
35 | Cc1cccc(OC(C)C(=O)Nc2cccc(CO/N=C(/c3ccccc3)c3noc(=O)n3C)n2)c1 (stereo not shown) [Example 128] | 4.35 [a]
36 | Cn1c(/C(=N\OCc2cccc(NC(=O)OCc3c(Cl)cccc3Cl)n2)c2ccccc2)noc1=O [compound 428] | 4.56 [a]
37 | CCOCCCOC(=O)Nc1cccc(CO/N=C(/c2ccccc2)c2noc(=O)n2C)n1 [compound 431] | 3.44 [a]
38 | CN(C)CCCOC(=O)Nc1cccc(CO/N=C(/c2ccccc2)c2noc(=O)n2C)n1 [compound 472] | 1.88 [a]
39 | Cn1c(/C(=N\OCc2cccc(NC(=O)COc3ccc(Cl)cc3Cl)n2)c2ccccc2)noc1=O [Example 274] | 4.61 [a]
40 | CCCCC(=O)Nc1nc(CO/N=C(/c2ccccc2Cl)c2noc(=O)n2C)cs1 [Example 481] | 3.53 [a]
41 | CCCCCCCCOC(=O)Nc1cccc(CO/N=C(/c2ccccc2)c2noc(=O)n2C)n1 [compound 465] | 5.65 [a]
42 | CC(C)c1ccc(OC(=O)Nc2cccc(CON=C(c3ccccc3)c3noc(=O)n3C)n2)cc1 [compound 492] | 4.67 [a]
43 | CCCCCC(=O)Nc1cccc(CO/N=C(/c2cccc(F)c2F)c2noc(=O)n2C)n1 [Example 464] | 3.92 [a]
44 | Cn1c(/C(=N\OCc2cccc(NC(=O)OCCF)n2)c2ccccc2)noc1=O [compound 551] | 2.96 [a]
45 | CCOC(=O)COC(=O)Nc1cccc(CO/N=C(/c2ccccc2)c2noc(=O)n2C)n1 [compound 554] | 3.21 [a]
46 | COC(C)CCOC(=O)Nc1cccc(CO/N=C(/c2ccccc2)c2noc(=O)n2C)n1 (stereo not shown) [compound 429] | 3.37 [a]
47 | COc1cccc(OC(C)C(=O)Nc2cccc(CO/N=C(/c3ccccc3)c3noc(=O)n3C)n2)c1 (stereo not shown) [Example 69] | 3.97 [a]
48 | CC(C)C1(C(=O)Nc2cccc(CO/N=C(/c3ccccc3)c3noc(=O)n3C)n2)CC1(Cl)Cl (racemic) [Example 371] | 4.35 [a]
49 | Cn1c(/C(=N\OCc2cccc(NC(=O)COc3cccc(Br)c3)n2)c2ccccc2)noc1=O [Example 382] | 4.2 [a]
50 | Cn1c(C(=NOCc2cccc(N)n2)c2ccc(F)cc2)noc1=O [Example 259] | 1.41 [a]
51 | COc1cccc(/C(=N/OCc2cccc(N(C(=O)OC(C)(C)C)C(=O)OC(C)(C)C)n2)c2noc(=O)n2C)c1 [Example 141] | 4.44 [a]
52 | Cn1c(/C(=N\OCc2cccc(NC(=O)OCC3(C)COC3)n2)c2ccccc2)noc1=O [compound 412] | 2.96 [a]
53 | Cc1cccc(OCC(=O)Nc2cccc(CO/N=C(/c3ccccc3)c3noc(=O)n3C)n2)c1 [Example 334] | 4.07 [a]
54 | Cn1c(/C(=N\OCc2cccc(NC(=O)OCCC(C)(C)C)n2)c2ccccc2)noc1=O [compound 423] | 4.68 [a]
55 | C#CCCCOC(=O)Nc1cccc(CO/N=C(/c2ccccc2)c2noc(=O)n2C)n1 [compound 436] | 3.51 [a]
56 | CC(C)CCCCOC(=O)Nc1cccc(CON=C(c2ccccc2)c2noc(=O)n2C)n1 [compound 506] | 5.17 [a]
57 | Cc1ccc(OC(C)C(=O)Nc2cccc(CO/N=C(/c3ccccc3)c3noc(=O)n3C)n2)cc1 (stereo not shown) [Example 287] | 4.35 [a]
58 | C=CCOCCOC(=O)Nc1cccc(CON=C(c2ccccc2)c2noc(=O)n2C)n1 [compound 490] | 3.37 [a]
